Drawing on the NIST ThermoML archive (doi:10.1021/je049605r), this text covers refractive index and mass density for six molecules.

Numbers after ± are expanded uncertainties.

A short description of series [1]: refractive index (Na D-line) (dimensionless). The conditions noted are these: 293.2 K; 101.33 kPa; Liquid; Standard Abbe refractometry.
For series [2] the following is noted: 293.2 K; 101.33 kPa; Liquid.

Consider `O` [water], for which the refractive index in series [1] is 1.3326 ± 0.0007.

With `CC(=O)OC1CCCCC1` [cyclohexyl ethanoate], in series [2], the mass density is on record as 970.3 ± 0.3 kg/m3. For the same molecule, in series [1], the refractive index was 1.441 ± 0.0007.

With `C1CCCCC1` [cyclohexane], in series [2], the mass density is listed as 779.3 ± 0.6 kg/m3. The refractive index in series [1] is 1.4269 ± 0.0007. For `Clc1ccccc1` [chlorobenzene], in that order: 1106.2 ± 0.4 kg/m3 and 1.5244 ± 0.0007. For the molecule `OCC1CCCO1` (stereo unspecified) [2-tetrahydrofurylmethanol], the mass density in series [2] is recorded as 1055.1 ± 0.6 kg/m3. Further, the refractive index in series [1] is given as 1.4525 ± 0.0007. In the case of `OC1CCCCC1` [cyclohexanol], the mass density in series [2] amounted to 963.5 ± 9.6 kg/m3. In series [1], the refractive index came to 1.4648 ± 0.0007.

Usually refractive index stands for a measure of how strongly the sample bends light. In general, mass density refers to the mass of a sample divided by its volume.
